Reference: patent US8999986B2, “Pyrrolo [2,3—D] pyrazin—7—ylpyrimidine compounds” (Merck Patent GmbH, priority 2009, dated 2015)
Read-outs that look alike come from different tables or passages of the source.

How the values were obtained:
[1] = test system: phospho-T308-PKB in PC3 cells; assay: Cellular testing of PDK1 kinase inhibitors in PC3 cells (Luminex, phospho-T308-PKB); type: cell-based; details: Homo sapiens
Experimental: Method for the Cellular Testing of PDK1 Kinase Inhibitors in PC3 Cells.
The cellular assay for the determination of the PDK1 kinase activity is carried out as a Luminex assay in the 96-well format. PC3 cells are sown at 20,000 cells per well in 100 μl of medium (45% of […]/45% of Ham's F12/10% of FCS) and incubated on the following day for 30 min with a serial dilution of the test substance (7 concentrations) under serum-free conditions. The cells are subsequently lysed using 90 μl of lysis buffer (20 mM tris/HCl pH 8.0, 150 mM NaCl, 1% of NP40, 10% of glycerol, 1% of phosphatase inhibitor I, 1% of phosphatase inhibitor II, 0.1% of protease inhibitor cocktail 111, 0.01% of benzonase) per well, and the lysates are separated off from insoluble cell constituents by means of centrifugation through a 96-well filter plate (0.65 μm). The lysates are incubated overnight at 4° C. with shaking with Luminex beads to which an anti-total PKB antibody is coupled. The detection is carried out on the following day by addition of a phospho-T308-PKB antibody and a species-specific […] secondary antibody. The detection of phospho-T308-PKB is carried out by measurement in a Luminex100 instrument by determination of 100 events per cavity in a measurement time of 60 sec. As pharmacological blank, the signals obtained from cells which have been treated with 10 μM staurosporin are subtracted from all other batches. The control value used for maximum phosphorylation of PKB on T308 are the signals from cells which have only been treated with the solvent (0.3% of DMSO). The values of the batches treated with test substance are calculated therefrom as percentage of control, and IC50 values are determined by means of RS1.

PDK1 = molecular target: T1, PDK1 (Homo sapiens, UniProt O15530); assay: Test for the inhibition of PDK1 (flashplate, 33P-ATP); type: biochemical; details: His6-PDK1(1-50) 3.4 nM, 4 μM ATP, 30° C., 60 min
T1 construct: His6 (N)
T1 sequence (O15530 51-556 limits assumed): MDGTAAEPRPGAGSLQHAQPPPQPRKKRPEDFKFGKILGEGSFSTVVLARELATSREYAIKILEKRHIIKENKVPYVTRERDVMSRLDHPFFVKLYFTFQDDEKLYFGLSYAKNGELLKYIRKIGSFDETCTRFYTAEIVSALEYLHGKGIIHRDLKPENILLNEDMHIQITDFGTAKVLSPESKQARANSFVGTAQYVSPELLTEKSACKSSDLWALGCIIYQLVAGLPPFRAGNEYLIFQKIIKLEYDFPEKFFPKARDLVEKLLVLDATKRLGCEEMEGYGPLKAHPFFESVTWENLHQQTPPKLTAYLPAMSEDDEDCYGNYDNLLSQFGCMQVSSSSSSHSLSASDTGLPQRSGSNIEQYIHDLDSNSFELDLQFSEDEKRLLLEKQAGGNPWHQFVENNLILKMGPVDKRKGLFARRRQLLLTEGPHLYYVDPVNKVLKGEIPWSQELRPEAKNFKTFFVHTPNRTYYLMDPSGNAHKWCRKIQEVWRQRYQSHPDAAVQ
Experimental: The experimental batches are carried out in a flashplate system with 384 wells/microtitration plate.
In each case, the PDK1 sample His6-PDK1(1-50)(3.4 nM), the PDK1 substrate biotin-bA-bA-[…] (400 nM), 4 μM ATP (with 0.2 μCi of ^33P-ATP/well) and the test substance in 50 μl of conventional experimental solution per well are incubated at 30° C. for 60 min. The test substances are employed in corresponding concentrations (if desired in a dilution series). The control is carried out without test substance. The reaction is stopped using standard methods and washed. The activity of the kinase is measured via the incorporated radioactivity in top count. In order to determine the non-specific kinase reaction (blank value), the experimental batches are carried out in the presence of 100 nM staurosporin.
The radioactivity (decompositions per minute) of the blank value (no use of test substance in the presence of staurosporin) is subtracted from all other radioactivity values. The controls (kinase activity without test substance) are set equal to 100 percent and all other radioactivity values (after subtracting the blank value) are expressed set in relation thereto (for example in % of the control).
[formula] IC50 values (50% inhibition) are determined with the aid of statistics pro-grammes, such as, for example, RS1.

[2] = PC-3, cellular assay, cell line not named, read-out: IC50 [cell]

| IC50 [1, 2] | IC50 (PDK1) | IC50 ([1]; PC-3, 0.5 h, PC3 cells, 30 min with test substance, serum-free, read-out: IC50 [P-PKB T308]) | Compound |
| --- | --- | --- | --- |
| 420 nM | 90 nM |  | COCOC(C)(c1ccccc1)c1cc(-c2c[nH]c3ncc(-c4cnn(C)c4)nc23)nc(N)n1 (stereo not drawn) [A5, 4-(1-Methoxymethoxy-1-phenylethyl)-6-[2-(1-methyl-1H-pyrazol-4-yl)-5H-pyrrolo[2,3-b]pyrazin-7-yl]pyrimidin-2-ylamine] |
| 2.9 nM | 95 nM |  | CC[C@](O)(c1cc(-c2c[nH]c3ncc(-c4cnn(C)c4)nc23)nc(N)n1)c1ccccc1F (single isomer, unassigned) [A32] |
| 600 nM | 90 nM |  | CCC(OCOC)(c1cc(-c2c[nH]c3ncc(-c4cnn(C)c4)nc23)nc(N)n1)c1ccncc1F (stereo not drawn) [A27, 4-[1-(3-Fluoropyridin-4-yl)-1-methoxymethoxypropyl]-6-[2-(1-methyl-1H-pyrazol-4-yl)-5H-pyrrolo[2,3-b]pyrazin-7-yl]pyrimidin-2-ylamine] |
| 21 nM | 18 nM |  | CC[C@@](O)(c1cccc(F)c1)c1cc(-c2c[nH]c3ncc(-c4cnn(C)c4)nc23)nc(N)n1 (single isomer, unassigned) [A30] |
| 580 nM | 44 nM |  | CCC(O)(c1cc(-c2c[nH]c3ncc(-c4cnn(C)c4)nc23)nc(N)n1)c1ccncc1F (stereo not drawn) [A26, 1-{2-Amino-6-[2-(1-methyl-1H-pyrazol-4-yl)-5H-pyrrolo[2,3-b]pyrazin-7-yl]-pyrimidin-4-yl}-1-(3-fluoropyridin-4-yl)propan-1-ol] |
|  | 120 nM | 810 nM | COCOC(C)(c1cccc(F)c1)c1cc(-c2c[nH]c3ncc(-c4cnn(C)c4)nc23)nc(N)n1 (stereo not drawn) [A2, 4-[1-(3-fluorophenyl)-1-methoxymethoxyethyl]-6-[2-(1-methyl-1H-pyrazol-4-yl)-5H-pyrrolo[2,3-b]pyrazin-7-yl]pyrimidin-2-ylamine] |
| 250 nM | 350 nM |  | CC(C)n1cc(-c2cnc3[nH]cc(-c4cc(C(C)(O)c5ccccc5F)nc(N)n4)c3n2)cn1 (stereo not drawn) [A33, 1-{2-Amino-6-[2-(1-isopropyl-1H-pyrazol-4-yl)-5H-pyrrolo[2,3-b]pyrazin-7-yl]-pyrimidin-4-yl}-1-(2-fluorophenyl)ethanol] |
| 570 nM | 43 nM |  | Cn1cc(-c2cnc3[nH]cc(-c4cc([C@@](C)(O)c5ccccc5F)nc(N)n4)c3n2)cn1 (single isomer, unassigned) [A8] |
| 260 nM | 77 nM |  | COCOC(C)(c1cc(-c2c[nH]c3ncc(-c4cnn(C)c4)nc23)nc(N)n1)c1ccccc1F (stereo not drawn) [A7, 4-[1-(2-Fluorophenyl)-1-methoxymethoxyethyl]-6-[2-(1-methyl-1H-pyrazol-4-yl)-5H-pyrrolo[2,3-b]pyrazin-7-yl]pyrimidin-2-ylamine] |
| 570 nM | 55 nM |  | Cn1cc(-c2cnc3[nH]cc(-c4cc(C(C)(O)c5ccccc5)nc(N)n4)c3n2)cn1 (stereo not drawn) [A4, 1-{2-Amino-6-[2-(1-methyl-1H-pyrazol-4-yl)-5H-pyrrolo[2,3-b]pyrazin-7-yl]-pyrimidin-4-yl}-1-phenylethanol] |
| 92 nM | 54 nM |  | CCC(O)(c1cc(-c2c[nH]c3ncc(-c4cnn(C)c4)nc23)nc(N)n1)c1ccccc1F (stereo not drawn) [A24, 1-{2-Amino-6-[2-(1-methyl-1H-pyrazol-4-yl)-5H-pyrrolo[2,3-b]pyrazin-7-yl]-pyrimidin-4-yl}-1-(2-fluorophenyl)propan-1-ol] |
| 2.2 nM | 90 nM |  | CC[C@](O)(c1cccc(F)c1)c1cc(-c2c[nH]c3ncc(-c4cnn(C)c4)nc23)nc(N)n1 (single isomer, unassigned) [A29] |
| 4.8 nM | 24 nM |  | CC[C@@](O)(c1cc(-c2c[nH]c3ncc(-c4cnn(C)c4)nc23)nc(N)n1)c1ccccc1F (single isomer, unassigned) [A31] |
| 530 nM | 71 nM |  | Cn1cc(-c2cnc3[nH]cc(-c4cc(C(C)(O)c5cccc(F)c5)nc(N)n4)c3n2)cn1 (stereo not drawn) [A3, 1-{2-amino-6-[2-(1-methyl-1H-pyrazol-4-yl)-5H-pyrrolo[2,3-b]pyrazin-7-yl]-pyrimidin-4-yl}-1-(3-fluorophenyl)ethanol] |
| 160 nM | 17 nM |  | CCC(O)(c1ccncc1)c1cc(-c2c[nH]c3ncc(-c4cnn(C)c4)nc23)nc(N)n1 (stereo not drawn) [A28, 1-{2-Amino-6-[2-(1-methyl-1H-pyrazol-4-yl)-5H-pyrrolo[2,3-b]pyrazin-7-yl]-pyrimidin-4-yl}-1-pyridin-4-ylpropan-1-ol] |
| 110 nM | 36 nM |  | CCC(O)(c1cccc(F)c1)c1cc(-c2c[nH]c3ncc(-c4cnn(C)c4)nc23)nc(N)n1 (stereo not drawn) [A25, 1-{2-Amino-6-[2-(1-methyl-1H-pyrazol-4-yl)-5H-pyrrolo[2,3-b]pyrazin-7-yl]-pyrimidin-4-yl}-1-(3-fluorophenyl)propan-1-ol] |
| 150 nM | 47 nM |  | Cn1cc(-c2cnc3[nH]cc(-c4cc([C@](C)(O)c5ccccc5F)nc(N)n4)c3n2)cn1 (single isomer, unassigned) [A9] |
| 190 nM | 31 nM |  | Cn1cc(-c2cnc3[nH]cc(-c4cc(C(C)(O)c5ccccc5F)nc(N)n4)c3n2)cn1 (stereo not drawn) [A6, 1-{2-Amino-6-[2-(1-methyl-1H-pyrazol-4-yl)-5H-pyrrolo[2,3-b]pyrazin-7-yl]-pyrimidin-4-yl}-1-(2-fluorophenyl)ethanol] |
